Laboratory results: patent EP4745134A1 (Jiangsu Yahong Meditech Co., Ltd., priority 2023, dated 2025)
Read-outs that look alike come from different tables or passages of the source.

What was measured:
[1] = tested on: HCT116 MTAP KO cells; test: Inhibitory activity against cell proliferation (CellTiter Glo, 6 days), HCT116 MTAP KO; assay type: cell-based; settings: for IC50: HCT116 MTAP KO cells, 6 days, CellTiter Glo, read-out: HCT116 MTAP KO IC50; for Selectivity HCT 116-WT/ HCT116 MTAP KO: ratio of IC50 HCT116-WT / HCT116 MTAP KO
Protocol: (§1) HCT116-WT (ATCC, CCL-247) and HCT116 MTAP KO (Nanjing Cobioer, CBP75002) cells were seeded into white low-transparency sterile 96-well cell culture plates at a density of 250 cells per well respectively, and the culture medium was McCoy's 5A Medium+10% FBS. The plates were placed under the condition of 37°C and 5% CO2 to be cultured overnight. The cells were treated with 4-fold serially diluted compounds of 8 concentration points starting at an initial concentration of 10000 nM, and the last two columns were used as control wells to which only DMSO was added. The drug-treated cells were further cultured for 6 days. On day 7, CellTiter Glo® reagent was added at 50 uL per well, and after reaction under shaking for 10 minutes at room temperature, the chemiluminescence signals were detected for the well plates through the chemiluminescence detection method using a BIOTEK H1 multifunctional microplate-reader. The IC50 values for inhibition of the compounds on cell viability were calculated in X1fit 5.0 software. Table 2. IC50 values for inhibition of the compounds on HCT116 MTAP KO/WT cell growth

[2] = tested on: HCT116-WT cells; test: Inhibitory activity against cell proliferation (CellTiter Glo, 6 days), HCT116-WT; assay type: cell-based; settings: HCT116-WT cells, 6 days, CellTiter Glo, read-out: HCT116-WT IC50
Protocol: as §1

In the case of `Cc1cc2cc(C(=O)N(Cc3ccc(-c4cn(C)cn4)cn3)N(C)c3ncccn3)ccc2nc1N` [Example 194, 2-amino-N',3-dimethyl-N-((5-(1-methyl-1H-imidazol-4-yl)pyridin-2-yl)methyl)-N '-(pyrimidin-2-yl)quinoline-6-carbohydrazide], the IC50 ([1]; Homo sapiens, HCT-116, 144 h) is reported as 257 nM, the “Selectivity HCT 116-WT/ HCT116 MTAP KO” value [1] is reported as 16.46 and the IC50 ([2]; 144 h) is reported as 4230 nM.
With `Cc1cc2cc(C(=O)N(Cc3ccc4sc(C5=CCN(C)CC5)nc4c3)N(C)c3ncccn3)ccc2nc1N` [Example 195, 2-amino-N',3-dimethyl-N-((2-(1-methyl-1,2,3,6-tetrahydropyridin-4-yl)benzo[d]thiazol-5-yl)methyl)-N'-(pyrimidin-2-yl)qui noline-6-carbohydrazide] the IC50 ([1]; Homo sapiens, HCT-116, 144 h) was 216 nM, the “Selectivity HCT 116-WT/ HCT116 MTAP KO” value [1] was 14.53 and the IC50 ([2]; 144 h) was 3140 nM.
For `Cc1cc2cc(C(=O)N(Cc3ccc(-c4cnc5c(cnn5C)c4)cn3)N(C)c3ncccn3)ccc2nc1N` [Example 198, 2-amino-N',3-dimethyl-N-((5-(1-methyl-1H-pyrazolo[3,4-b]pyridin-5-yl)pyridin-2-yl)methyl)-N'-(pyrimidin-2-yl)quinoline-6-carbohydrazide], the IC50 [1] was 32 nM, the “Selectivity HCT 116-WT/ HCT116 MTAP KO” value [1] was 26.09 and the IC50 [2] was 835 nM.
`Cc1cc2cc(C(=O)N(Cc3ccc(-c4cncs4)cn3)N(C)c3ncccn3)ccc2nc1N` [Example 204, 2-amino-N',3-dimethyl-N'-(pyrimidin-2-yl)-N-((5-(thiazol-5-yl)pyridin-2-yl)methyl)quinoline-6-carbohydrazide] was tested, and the IC50 ([1]; Homo sapiens, HCT-116, 144 h) was 14 nM, the “Selectivity HCT 116-WT/ HCT116 MTAP KO” value [1] was 28.29 and the IC50 ([2]; 144 h) was 396 nM.
In the case of `Cc1cc2cc(C(=O)N(Cc3ccc(-c4cnn(C(C)(C)C)c4)cn3)N(C)c3ncccn3)ccc2nc1N` [Example 205, 2-amino-N-((5-(1-(tert-butyl)-1H-pyrazol-4-yl)pyridin-2-yl)methyl)-N',3-dimethyl-N'-(pyrimidin-2-yl)quinoline-6-carbohydr azide], the IC50 ([1]; Homo sapiens, HCT-116, 144 h) is reported as 58 nM, the “Selectivity HCT 116-WT/ HCT116 MTAP KO” value [1] is reported as 20.14 and the IC50 ([2]; 144 h) is reported as 1170 nM.
`CCn1cc(-c2ccc(CN(C(=O)c3ccc4nc(N)c(C)cc4c3)N(C)c3ncccn3)nc2)cn1` [Example 206, 2-amino-N-((5-(1-ethyl-1H-pyrazol-4-yl)pyridin-2-yl)methyl)-N',3-dimethyl-N'-(pyrimidin-2-yl)quinoline-6-carbohydrazide] was tested, and the IC50 ([1]; Homo sapiens, HCT-116, 144 h) was 18 nM, the “Selectivity HCT 116-WT/ HCT116 MTAP KO” value [1] was 51.17 and the IC50 ([2]; 144 h) was 921 nM.
For `Cc1cc2cc(C(=O)N(Cc3ccc(-c4ccc(N5CCNCC5)nc4)cn3)N(C)c3ncccn3)ccc2nc1N` [Example 207, 2-amino-N',3-dimethyl-N-((6'-(piperazin-1-yl)-[3,3'-bipyridine]-6-yl)methyl)-N'-(pyrimidin-2-yl)quinoline-6-carbohydrazide], the IC50 ([1]; Homo sapiens, HCT-116, 144 h) was 26 nM, the “Selectivity HCT 116-WT/ HCT116 MTAP KO” value [1] was 18.77 and the IC50 ([2]; 144 h) was 488 nM.
With `Cc1cc2cc(C(=O)N(Cc3ccc(-c4ccn(C)c(=O)c4)cn3)N(C)c3ncccn3)ccc2nc1N` [Example 209, 2-amino-N',3-dimethyl-N-((1'-methyl-2'-oxo-1',2'-dihydro-[3,4'-bipyridine]-6-yl)methyl)-N'-(pyrimidin-2-yl)quinoline-6-car bohydrazide] the IC50 ([1]; Homo sapiens, HCT-116, 144 h) was 26 nM, the “Selectivity HCT 116-WT/ HCT116 MTAP KO” value [1] was 27.54 and the IC50 ([2]; 144 h) was 716 nM.
In the case of `Cc1cc2cc(C(=O)N(Cc3ccc(-c4ccns4)cn3)N(C)c3ncccn3)ccc2nc1N` [Example 210, 2-amino-N-((5-(isothiazol-5-yl)pyridin-2-yl)methyl)-N',3-dimethyl-N'-(pyrimidin-2-yl)quinoline-6-carbohydrazide], the IC50 ([1]; Homo sapiens, HCT-116, 144 h) is reported as 25 nM, the “Selectivity HCT 116-WT/ HCT116 MTAP KO” value [1] is reported as 19.68 and the IC50 ([2]; 144 h) is reported as 492 nM.
With `Cc1cc2cc(C(=O)N(Cc3ccc(-c4ccc(N(C)C)nc4)cn3)N(C)c3ncccn3)ccc2nc1N` [Example 212, 2-amino-N-((6'-(dimethylamino)-[3,3'-bipyridine]-6-yl)methyl)-N',3-dimethyl-N'-(pyrimidin-2-yl)quinoline-6-carbohydrazide] the IC50 ([1]; Homo sapiens, HCT-116, 144 h) was 30 nM, the “Selectivity HCT 116-WT/ HCT116 MTAP KO” value [1] was 21.53 and the IC50 ([2]; 144 h) was 646 nM.
With `Cc1cc2cc(C(=O)N(Cc3ccc(-c4cnn(C(F)F)c4)cn3)N(C)c3ncccn3)ccc2nc1N` [Example 213, 2-amino-N-((5-(1-(difluoromethyl)-1H-pyrazol-4-yl)pyridin-2-yl)methyl)-N',3-di methyl-N'-(pyrimidin-2-yl)quinoline-6-c arbohydrazide] the IC50 [1] was 39 nM, the “Selectivity HCT 116-WT/ HCT116 MTAP KO” value [1] was 22.13 and the IC50 [2] was 863 nM.
For `Cc1cc2cc(C(=O)N(Cc3ccc(-c4cccs4)cn3)N(C)c3ncccn3)ccc2nc1N` [Example 214, 2-amino-N',3-dimethyl-N'-(pyrimidin-2-yl)-N-((5-(thien-2-yl)pyridin-2-yl)methyl) quinoline-6-carbohydrazide], the IC50 ([1]; Homo sapiens, HCT-116, 144 h) was 29 nM, the “Selectivity HCT 116-WT/ HCT116 MTAP KO” value [1] was 23.93 and the IC50 ([2]; 144 h) was 694 nM.
For `Cc1cc2cc(C(=O)N(Cc3ccc4sc(C5CCN(C)CC5)nc4c3)N(C)c3ncccn3)ccc2nc1N` [Example 219], the IC50 ([1]; Homo sapiens, HCT-116, 144 h) was 216 nM, the “Selectivity HCT 116-WT/ HCT116 MTAP KO” value [1] was 14.53 and the IC50 ([2]; 144 h) was 3140 nM.
For `Cc1csc(-c2ccc(CN(C(=O)c3ccc4nc(N)c(C)cc4c3)N(C)c3ncccn3)nc2)n1` [Example 227, 2-amino-N',3-dimethyl-N-((5-(4-methylthiazol-2-yl)pyridin-2-yl)methyl)-N'-(pyrimidin-2-yl)quinoline-6-carbohydrazide], the IC50 ([1]; Homo sapiens, HCT-116, 144 h) was 140 nM, the “Selectivity HCT 116-WT/ HCT116 MTAP KO” value [1] was 24.44 and the IC50 ([2]; 144 h) was 3420 nM.
With `Cc1cc2cc(C(=O)N(Cc3ccc(-c4cnn(C)n4)cn3)N(C)c3ncccn3)ccc2nc1N` [Example 228, 2-amino-N',3-dimethyl-N-((5-(2-methyl-2H-1,2,3-triazol-4-yl)pyridin-2-yl)methyl)-N'-(pyrimidin-2-yl)quinoline-6-carbohy drazide] the IC50 ([1]; Homo sapiens, HCT-116, 144 h) was 51 nM, the “Selectivity HCT 116-WT/ HCT116 MTAP KO” value [1] was 25.92 and the IC50 ([2]; 144 h) was 1320 nM.
`Cc1cc2cc(C(=O)N(Cc3ccc(-c4nc(C#N)cs4)cn3)N(C)c3ncccn3)ccc2nc1N` [Example 230, 2-amino-N-((5-(4-cyanothiazol-2-yl)pyridin-2-yl)methyl)-N',3-dimethyl-N'-(pyrimidin-2-yl)quinoline-6-carbohydrazide] was tested, and the IC50 ([1]; Homo sapiens, HCT-116, 144 h) was 27 nM, the “Selectivity HCT 116-WT/ HCT116 MTAP KO” value [1] was 10.33 and the IC50 ([2]; 144 h) was 279 nM.
For `Cc1cc2cc(C(=O)N(Cc3ccc(-c4nnn(C)n4)cn3)N(C)c3ncccn3)ccc2nc1N` [Example 231, 2-amino-N',3-dimethyl-N-((5-(2-methyl-2H-tetrazol-5-yl)pyridin-2-yl)methyl)-N'-(pyrimidin-2-yl)quinoline-6-carbohydrazide], the IC50 ([1]; Homo sapiens, HCT-116, 144 h) was 212 nM, the “Selectivity HCT 116-WT/ HCT116 MTAP KO” value [1] was 12.71 and the IC50 ([2]; 144 h) was 2700 nM.
In the case of `Cc1cc2cc(C(=O)N(Cc3ccc(-c4nccs4)cn3)N(C)c3ncccn3)ccc2nc1N` [Example 234, 2-amino-N',3-dimethyl-N'-(pyrimidin-2-yl)-N-((5-(thiazol-2-yl)pyridin-2-yl)methyl)quinoline-6-carbohydrazide], the IC50 ([1]; Homo sapiens, HCT-116, 144 h) is reported as 20 nM, the “Selectivity HCT 116-WT/ HCT116 MTAP KO” value [1] is reported as 37.50 and the IC50 ([2]; 144 h) is reported as 750 nM.
`Cc1cc2cc(C(=O)N(Cc3ccc(-c4ccc(N(C)CCO)nc4)cn3)N(C)c3ncccn3)ccc2nc1N` [Example 246, 2-amino-N-((6'-((2-hydroxyethyl) (methyl)amino)-[3,3'-bipyridine]-6-yl)methyl)-N',3-dimethyl-N'-(pyrimidin-2-yl)quinoline-6-carbohydrazide] was tested, and the IC50 ([1]; Homo sapiens, HCT-116, 144 h) was 18 nM, the “Selectivity HCT 116-WT/ HCT116 MTAP KO” value [1] was 26.78 and the IC50 ([2]; 144 h) was 482 nM.
`CN(c1ncccn1)N(Cc1ccc(-c2cnn(C(F)(F)F)c2)cn1)C(=O)c1ccc2nc(N)c3cnn(C)c3c2c1` [Example 248, 4-amino-N',1-dimethyl-N'-(pyrimidin-2-yl)-N-((5-(1-(trifluoromethyl)-1H-pyrazol-4-yl)pyridin-2-yl)methyl)-1H-pyrazolo[4,3-c]quinoline-8-carbohydrazide] was tested, and the IC50 ([1]; Homo sapiens, HCT-116, 144 h) was 3.9 nM, the “Selectivity HCT 116-WT/ HCT116 MTAP KO” value [1] was 16.15 and the IC50 ([2]; 144 h) was 63 nM.
With `COCCN(C)c1ccc(-c2ccc(CN(C(=O)c3ccc4nc(N)c(C)cc4c3)N(C)c3ncccn3)nc2)cn1` [Example 254, 2-amino-N-((6'-((2-methoxyethyl)(methyl)amino)-[3,3'-bipyridine]-6-yl)methyl)-N',3-d imethyl-N'-(pyrimidin-2-yl)quinoline-6-carbohydrazide] the IC50 ([1]; Homo sapiens, HCT-116, 144 h) was 42 nM, the “Selectivity HCT 116-WT/ HCT116 MTAP KO” value [1] was 11.98 and the IC50 ([2]; 144 h) was 503 nM.
With `CCN(CC)c1ccc(-c2ccc(CN(C(=O)c3ccc4nc(N)c(C)cc4c3)N(C)c3ncccn3)nc2)cn1` [Example 255, 2-amino-N-((6'-(diethylamino)-[3,3'-bipyridin]-6-yl)methyl)-N',3-dimethyl-N'-(pyrimidin-2-yl)quinoline-6-carbohydrazide] the IC50 ([1]; Homo sapiens, HCT-116, 144 h) was 81 nM, the “Selectivity HCT 116-WT/ HCT116 MTAP KO” value [1] was 12.07 and the IC50 ([2]; 144 h) was 978 nM.
`Cc1cc2cc(C(=O)N(Cc3ccc(-c4ccc(N5CCC5)nc4)cn3)N(C)c3ncccn3)ccc2nc1N` [Example 256, 2-amino-N-((6'-(azetidin-1-yl)-[3,3'-bipyridin]-6-yl)methyl)-N',3-dimethyl-N'-(pyrimidin-2-yl)quinoline-6-carbohydrazide] was tested, and the IC50 ([1]; Homo sapiens, HCT-116, 144 h) was 52 nM, the “Selectivity HCT 116-WT/ HCT116 MTAP KO” value [1] was 16.83 and the IC50 ([2]; 144 h) was 875 nM.
